≈ marks a conversion by molar mass, not a printed value. Each block holds one compound with its values, some of them ahead of it. Calls of active or inactive are those of the source. The rule behind the calls is not given here.
Legend:
[1] = Clearance in iv dosed rat; type: ADME, organism-based; conditions: in vivo
[2] = (§1) Intrinsic clearance in rat liver microsomes; type: ADME, Microsome; conditions: liver microsomes, read-out: CLH
[3] = Intrinsic clearance in human liver microsomes; type: ADME, Microsome; conditions: read-out: CLH
[4] = Oral bioavailability in rat; type: ADME, organism-based; conditions: in vivo
[5] = Clearance in iv dosed dog; type: ADME, organism-based, Canis lupus familiaris; conditions: in vivo
[6] = Genotoxicity in micronucleus
Salmonella typhimurium = assay: Genotoxicity in Salmonella typhimurium; type: toxicity, organism-based; conditions: salmonella enterica subsp. enterica serovar typhimurium
[7] = Volume of distribution at steady state in iv dosed dog; type: ADME, organism-based, Canis lupus familiaris; conditions: in vivo, read-out: Vdss
[8] = Volume of distribution at steady state in iv dosed rat; type: ADME, organism-based; conditions: in vivo, read-out: Vdss
[9] = Oral bioavailability in dog; type: ADME, organism-based, Canis lupus familiaris; conditions: in vivo
[10] = molecular target: High affinity cAMP-specific and IBMX-insensitive 3',5'-cyclic phosphodiesterase 8B (Homo sapiens, UniProt O95263); assay: Inhibition of PDE8B expressed in Sf9 insect cells
High affinity cAMP-specific and IBMX-insensitive 3',5'-cyclic phosphodiesterase 8B, sequence (O95263 whole entry): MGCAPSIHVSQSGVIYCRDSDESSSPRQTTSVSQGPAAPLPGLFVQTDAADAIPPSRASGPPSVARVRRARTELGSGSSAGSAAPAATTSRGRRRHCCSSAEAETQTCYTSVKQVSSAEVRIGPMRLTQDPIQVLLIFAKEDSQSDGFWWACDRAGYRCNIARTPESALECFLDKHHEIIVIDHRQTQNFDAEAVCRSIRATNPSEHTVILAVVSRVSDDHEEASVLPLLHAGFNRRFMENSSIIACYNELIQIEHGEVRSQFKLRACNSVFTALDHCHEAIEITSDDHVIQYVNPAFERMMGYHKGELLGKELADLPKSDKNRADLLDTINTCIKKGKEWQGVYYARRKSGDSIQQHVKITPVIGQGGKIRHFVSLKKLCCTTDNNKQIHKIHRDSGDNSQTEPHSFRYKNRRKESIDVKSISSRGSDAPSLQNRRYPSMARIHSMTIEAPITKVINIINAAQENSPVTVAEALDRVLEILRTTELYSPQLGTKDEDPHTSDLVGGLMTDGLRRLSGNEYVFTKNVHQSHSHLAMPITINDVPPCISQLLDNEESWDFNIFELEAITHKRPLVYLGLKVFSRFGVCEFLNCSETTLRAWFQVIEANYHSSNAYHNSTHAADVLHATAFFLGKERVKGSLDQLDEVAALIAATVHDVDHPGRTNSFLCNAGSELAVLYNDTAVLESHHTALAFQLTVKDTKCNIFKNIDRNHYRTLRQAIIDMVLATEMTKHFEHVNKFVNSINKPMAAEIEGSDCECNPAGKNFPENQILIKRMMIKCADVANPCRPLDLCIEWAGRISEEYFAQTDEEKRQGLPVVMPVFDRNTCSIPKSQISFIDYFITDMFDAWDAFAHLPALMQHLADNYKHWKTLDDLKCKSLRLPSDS

[11] = molecular target: 3',5'-cyclic-AMP phosphodiesterase 4D (Homo sapiens) (UniProt Q08499); assay: Inhibition of PDE4D at 1 uM
3',5'-cyclic-AMP phosphodiesterase 4D (Homo sapiens), sequence (Q08499 whole entry): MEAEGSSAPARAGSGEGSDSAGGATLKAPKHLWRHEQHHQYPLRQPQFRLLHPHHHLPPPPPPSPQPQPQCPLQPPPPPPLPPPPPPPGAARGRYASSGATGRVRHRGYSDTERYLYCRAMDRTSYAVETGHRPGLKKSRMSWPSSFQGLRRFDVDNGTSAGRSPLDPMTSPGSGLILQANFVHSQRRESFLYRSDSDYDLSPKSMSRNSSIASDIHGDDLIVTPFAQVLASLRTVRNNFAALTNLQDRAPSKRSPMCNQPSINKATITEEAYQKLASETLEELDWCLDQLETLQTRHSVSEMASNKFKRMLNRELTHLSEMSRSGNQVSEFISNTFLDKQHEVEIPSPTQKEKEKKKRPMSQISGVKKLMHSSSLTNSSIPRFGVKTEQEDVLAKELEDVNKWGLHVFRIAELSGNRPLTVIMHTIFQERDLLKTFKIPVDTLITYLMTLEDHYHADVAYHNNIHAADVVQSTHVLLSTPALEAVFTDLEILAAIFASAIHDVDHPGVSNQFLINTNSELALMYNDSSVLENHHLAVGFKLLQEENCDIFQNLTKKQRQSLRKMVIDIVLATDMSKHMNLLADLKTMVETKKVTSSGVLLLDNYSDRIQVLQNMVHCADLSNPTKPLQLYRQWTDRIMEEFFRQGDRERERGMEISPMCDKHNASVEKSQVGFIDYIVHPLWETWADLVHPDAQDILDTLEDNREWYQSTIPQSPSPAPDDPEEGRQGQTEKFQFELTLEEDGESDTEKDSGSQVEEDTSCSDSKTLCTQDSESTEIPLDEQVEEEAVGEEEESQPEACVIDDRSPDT

[12] = molecular target: 3',5'-cyclic-AMP phosphodiesterase 4C (Homo sapiens) (UniProt Q08493); assay: Inhibition of PDE4C at 1 uM
3',5'-cyclic-AMP phosphodiesterase 4C (Homo sapiens), sequence (Q08493 whole entry): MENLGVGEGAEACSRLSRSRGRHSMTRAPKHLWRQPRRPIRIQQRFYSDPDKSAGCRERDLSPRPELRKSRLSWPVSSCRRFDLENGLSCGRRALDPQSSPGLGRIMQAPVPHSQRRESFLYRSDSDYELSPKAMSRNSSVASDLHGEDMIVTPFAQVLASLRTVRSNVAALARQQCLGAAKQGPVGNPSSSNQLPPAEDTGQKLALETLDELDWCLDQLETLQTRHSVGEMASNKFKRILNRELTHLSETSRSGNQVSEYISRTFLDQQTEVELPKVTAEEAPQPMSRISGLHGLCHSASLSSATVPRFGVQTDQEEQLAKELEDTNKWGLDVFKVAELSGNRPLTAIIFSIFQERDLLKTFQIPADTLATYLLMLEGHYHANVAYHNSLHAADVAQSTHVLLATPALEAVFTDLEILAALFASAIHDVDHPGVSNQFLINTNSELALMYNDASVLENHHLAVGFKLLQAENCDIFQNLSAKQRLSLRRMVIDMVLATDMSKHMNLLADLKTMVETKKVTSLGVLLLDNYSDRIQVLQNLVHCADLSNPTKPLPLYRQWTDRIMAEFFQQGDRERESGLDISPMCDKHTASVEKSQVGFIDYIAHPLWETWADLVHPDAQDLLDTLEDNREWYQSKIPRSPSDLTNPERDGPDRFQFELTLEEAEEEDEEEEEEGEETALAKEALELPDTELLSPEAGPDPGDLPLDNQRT

[13] = Solubility of the compound; type: physicochemical
Liver microsomes = assay: as §1; type: ADME, Microsome; conditions: microsomes
Canis familiaris [14] = organism: Canis familiaris; assay: Cardiotoxicity in dog assessed as increase in heart rate at > 10 times IC50; type: toxicity, organism-based, Canis lupus familiaris; conditions: in vivo
[15] = Dissociation constant, pKa of the compound; type: physicochemical
[16] = Solubility of the compound at pH 7.4; type: physicochemical; conditions: buffer
[17] = Solubility of the compound at pH 4; type: physicochemical; conditions: buffer
[18] = molecular target: High affinity cAMP-specific and IBMX-insensitive 3',5'-cyclic phosphodiesterase 8A (Homo sapiens, UniProt O60658); assay: Inhibition of PDE8A
High affinity cAMP-specific and IBMX-insensitive 3',5'-cyclic phosphodiesterase 8A, sequence (O60658 whole entry): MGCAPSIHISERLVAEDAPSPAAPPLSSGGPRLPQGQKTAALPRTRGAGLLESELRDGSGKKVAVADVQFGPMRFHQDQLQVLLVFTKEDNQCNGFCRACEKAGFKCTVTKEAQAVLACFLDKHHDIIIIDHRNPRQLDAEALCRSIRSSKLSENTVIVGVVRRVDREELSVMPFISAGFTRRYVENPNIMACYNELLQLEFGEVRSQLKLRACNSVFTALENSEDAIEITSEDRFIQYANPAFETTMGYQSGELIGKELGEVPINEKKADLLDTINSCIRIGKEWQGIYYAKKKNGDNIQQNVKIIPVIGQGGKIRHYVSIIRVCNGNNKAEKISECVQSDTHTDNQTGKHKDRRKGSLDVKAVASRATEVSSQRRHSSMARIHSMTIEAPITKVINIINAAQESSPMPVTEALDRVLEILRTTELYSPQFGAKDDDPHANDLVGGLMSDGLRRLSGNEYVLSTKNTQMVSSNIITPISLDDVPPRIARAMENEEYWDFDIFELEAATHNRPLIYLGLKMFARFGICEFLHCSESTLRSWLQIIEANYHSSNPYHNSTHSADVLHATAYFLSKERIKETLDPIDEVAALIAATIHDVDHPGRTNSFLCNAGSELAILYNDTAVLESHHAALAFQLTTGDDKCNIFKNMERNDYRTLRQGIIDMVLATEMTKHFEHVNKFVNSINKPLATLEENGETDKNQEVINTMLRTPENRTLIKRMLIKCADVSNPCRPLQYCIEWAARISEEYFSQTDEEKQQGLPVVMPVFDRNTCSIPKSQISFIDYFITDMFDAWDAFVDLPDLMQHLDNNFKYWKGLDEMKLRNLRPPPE

Homo sapiens [19] = organism: Homo sapiens; assay: Inhibition of PDE
[20] = molecular target: Kappa-type opioid receptor (Homo sapiens) (UniProt P41145); assay: Inhibition of kappa opioid receptor
Kappa-type opioid receptor (Homo sapiens), sequence (P41145 whole entry): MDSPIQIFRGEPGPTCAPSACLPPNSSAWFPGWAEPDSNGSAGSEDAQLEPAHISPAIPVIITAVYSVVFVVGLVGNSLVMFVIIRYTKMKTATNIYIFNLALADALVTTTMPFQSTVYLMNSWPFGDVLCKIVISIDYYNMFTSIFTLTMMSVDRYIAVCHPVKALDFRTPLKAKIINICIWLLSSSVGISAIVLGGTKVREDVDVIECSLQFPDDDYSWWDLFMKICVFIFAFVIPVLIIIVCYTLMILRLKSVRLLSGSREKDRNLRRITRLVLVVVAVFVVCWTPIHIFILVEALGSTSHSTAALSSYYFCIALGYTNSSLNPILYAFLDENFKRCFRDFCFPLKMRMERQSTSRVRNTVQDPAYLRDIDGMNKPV

[21] = molecular target: Voltage-gated inwardly rectifying potassium channel KCNH2 (Homo sapiens, UniProt Q12809); assay: Inhibition of human ERG
Voltage-gated inwardly rectifying potassium channel KCNH2, sequence (Q12809 whole entry): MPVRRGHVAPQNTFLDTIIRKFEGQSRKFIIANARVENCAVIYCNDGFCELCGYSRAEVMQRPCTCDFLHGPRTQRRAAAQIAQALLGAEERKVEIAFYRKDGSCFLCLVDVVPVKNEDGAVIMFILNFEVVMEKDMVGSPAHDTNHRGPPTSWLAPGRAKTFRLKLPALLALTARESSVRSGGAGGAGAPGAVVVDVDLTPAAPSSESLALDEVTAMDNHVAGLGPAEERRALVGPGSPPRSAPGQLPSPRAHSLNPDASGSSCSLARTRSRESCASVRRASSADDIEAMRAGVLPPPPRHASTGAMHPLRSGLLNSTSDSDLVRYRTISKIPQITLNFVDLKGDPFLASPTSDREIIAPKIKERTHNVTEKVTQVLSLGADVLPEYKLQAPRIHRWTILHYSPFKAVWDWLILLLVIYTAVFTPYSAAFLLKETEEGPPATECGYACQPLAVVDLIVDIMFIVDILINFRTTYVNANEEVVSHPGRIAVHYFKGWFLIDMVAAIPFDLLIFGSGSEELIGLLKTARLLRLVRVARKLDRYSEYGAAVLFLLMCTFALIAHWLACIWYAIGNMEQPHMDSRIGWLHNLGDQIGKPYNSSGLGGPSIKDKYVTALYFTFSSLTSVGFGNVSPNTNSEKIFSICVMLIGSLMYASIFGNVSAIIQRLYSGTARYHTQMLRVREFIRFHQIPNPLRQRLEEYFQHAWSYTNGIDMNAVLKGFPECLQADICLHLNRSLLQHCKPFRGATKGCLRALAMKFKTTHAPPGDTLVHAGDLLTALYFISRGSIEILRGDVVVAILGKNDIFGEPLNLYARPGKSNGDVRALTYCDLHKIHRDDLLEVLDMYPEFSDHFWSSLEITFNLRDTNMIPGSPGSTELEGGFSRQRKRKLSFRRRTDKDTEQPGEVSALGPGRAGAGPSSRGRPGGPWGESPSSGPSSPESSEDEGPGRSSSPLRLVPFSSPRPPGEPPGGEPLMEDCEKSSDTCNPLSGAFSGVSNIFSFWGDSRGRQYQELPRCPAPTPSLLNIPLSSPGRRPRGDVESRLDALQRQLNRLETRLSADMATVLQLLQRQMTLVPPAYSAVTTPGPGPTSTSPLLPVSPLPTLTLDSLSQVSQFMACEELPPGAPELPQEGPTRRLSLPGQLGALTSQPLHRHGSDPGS

[22] = Efflux ratio of permeability of the compound across MDCK cells; type: ADME, cell-based, Canis lupus familiaris; conditions: dog
[23] = Fraction unbound in rat plasma; type: ADME, cell-free
[24] = Fraction unbound in dog plasma; type: ADME, cell-free, Canis lupus familiaris
[25] = Fraction unbound in human plasma; type: ADME, cell-free
Homo sapiens [26] = organism: Homo sapiens; assay: Selectivity ratio for PDE to PDE8B
Pancreatic islet = assay: Induction of insulin secretion in human pancreatic islet cells at 0.001 to 100 uM in presence of glucose; type: functional
Canis familiaris [27] = organism: Canis familiaris; assay: Cardiotoxicity in dog assessed as increase in blood pressure at > 10 times IC50; type: toxicity, organism-based, Canis lupus familiaris

Compound: Nc1nc(C2CC2)nc2c1ncn2C[C@H]1CCCO1
- IC50 [10]: > 2000 nM

Compound: Nc1nc(C2CCCCC2)nc2c1nnn2CC1CCCCO1 (centres undefined)
- microsomal CLint [3]: 100 µL/min/mg

Compound: Cc1nc(N)c2nnn(C[C@H]3CN(Cc4cc(F)cc(F)c4)CCO3)c2n1
- clearance [1]: 28 mL/min/kg
- microsomal CLint [2]: 80 µL/min/mg
- microsomal CLint [3]: 36 µL/min/mg
- bioavailability [4]: 12%
- clearance [5]: 4.8 mL/min/kg
- Activity [6]: Non-toxic
- Activity (Salmonella typhimurium): Non-toxic

Compound: Nc1nc(C2CC2)nc2c1nnn2CC1CN(Cc2ccccc2)CCO1 (centres undefined)
- solubility [13]: soluble

Compound: FC(F)(F)c1nc(NCc2cccnc2)c2nnn(CC3CCCCO3)c2n1 (centres undefined)
- IC50 [10]: > 420 nM

Compound: Nc1nc(C2CC2)nc2c1nnn2C[C@H]1CN(Cc2nccs2)CCO1
- clearance [1]: 72 mL/min/kg
- microsomal CLint [2]: 50 µL/min/mg
- microsomal CLint [3]: 20 µL/min/mg
- bioavailability [4]: 20%
- Activity [6]: Non-toxic
- Activity (Salmonella typhimurium): Non-toxic

Compound: Nc1ncnc2c1nnn2CC1CCCCO1 (centres undefined)
- microsomal CLint [3]: < 7.2 µL/min/mg

Compound: Nc1nc(C2CC2)nc2c1nnn2C[C@H]1CN(Cc2ncccn2)CCO1
- clearance [1]: 124 mL/min/kg
- microsomal CLint [2]: 75 µL/min/mg
- microsomal CLint [3]: 16 µL/min/mg
- clearance [5]: 7 mL/min/kg
- Activity [6]: Non-toxic
- Activity (Salmonella typhimurium): Non-toxic

Compound: Nc1nc(C2CC2)nc2c1nnn2CC1CCCCO1 (centres undefined)
- microsomal CLint (Liver microsomes): 93 µL/min/mg
- microsomal CLint [3]: < 7.2 µL/min/mg

Compound: Cc1nc(N)c2nnn(C[C@H]3CN(Cc4nccs4)CCO3)c2n1
- Activity (Canis familiaris [14]): Toxic
- clearance [1]: 23 mL/min/kg
- microsomal CLint [2]: < 14 µL/min/mg
- IC50 [10]: 1.3 nM
- microsomal CLint [3]: < 8 µL/min/mg
- bioavailability [4]: 63%
- clearance [5]: 3.5 mL/min/kg
- bioavailability [9]: 100%
- pKa [15]: 4.9
- solubility [16]: 150 µg/mL (≈ 0.433 mM)
- solubility [17]: 2900 µg/mL (≈ 8.37 mM)
- IC50 [18]: 1.9 nM
- INH (Homo sapiens [19]): > 10 µM
- Activity [6]: Non-toxic
- Activity (Salmonella typhimurium): Non-toxic
- INH [20]: 1.3 µM
- IC50 [21]: > 100000 nM
- efflux ratio [22]: 3.5
- fraction unbound [23]: 0.88
- fraction unbound [24]: 0.78
- fraction unbound [25]: 0.46
- Selectivity ratio (Homo sapiens [26]): > 1000
- Activity (Pancreatic islet): Active
- Activity (Canis familiaris [27]): Toxic

Compound: Nc1nc(C2CC2)nc2c1nnn2Cc1cc(C2CC2)n[nH]1
- microsomal CLint [3]: < 7.2 µL/min/mg

More lines, main results first:

- clearance [1]: 24 mL/min/kg
- microsomal CLint [2]: 22 µL/min/mg
- microsomal CLint [3]: 15 µL/min/mg
- bioavailability [4]: 45%
- clearance [5]: 5.6 mL/min/kg
Compound: CCc1csc(CN2CCO[C@@H](Cn3nnc4c(N)nc(C)nc43)C2)n1
- Activity [6]: Non-toxic
- Activity (Salmonella typhimurium): Non-toxic

- Vd [7]: 0.9 L/kg
- Vd [8]: 5.5 L/kg
- clearance [1]: 29 mL/min/kg
- microsomal CLint [2]: < 14 µL/min/mg
- microsomal CLint [3]: 24.6 µL/min/mg
- bioavailability [4]: < 5%
- clearance [5]: 11 mL/min/kg
- bioavailability [9]: < 5%
Compound: CCc1nc(Cn2nnc3c(N)nc(C4CC4)nc32)cs1

- microsomal CLint [2]: 244 µL/min/mg
- microsomal CLint [3]: 52 µL/min/mg
Compound: CCc1cnc(N2CC[C@@H](Cn3nnc4c(N)nc(C5CC5)nc43)C2)nc1

- microsomal CLint [3]: < 7.2 µL/min/mg
Compound: Nc1nc(C2CC2)nc2c1nnn2Cc1ccc(Cl)cc1

- microsomal CLint [2]: < 28 µL/min/mg
- microsomal CLint [3]: 11.9 µL/min/mg
Compound: Nc1nc(C2CC2)nc2c1nnn2C[C@H]1CCCO1

- microsomal CLint [3]: 17 µL/min/mg
Compound: Nc1nc(-c2ccccc2)nc2c1nnn2CC1CCCCO1 (centres undefined)

- clearance [1]: 121 mL/min/kg
- microsomal CLint [2]: 36 µL/min/mg
- microsomal CLint [3]: 36 µL/min/mg
- clearance [5]: 8.5 mL/min/kg
Compound: Nc1nc(C(F)(F)F)nc2c1nnn2C[C@H]1CN(Cc2ccccn2)CCO1
- Activity [6]: Non-toxic
- Activity (Salmonella typhimurium): Non-toxic

- inhibition [11]: 64%
- inhibition [12]: 60%
- IC50 [10]: 3620 nM
- microsomal CLint [3]: 150 µL/min/mg
Compound: Nc1nc(C2CC2)nc2c1nnn2CC1CCCN(Cc2ccccc2)C1 (centres undefined)

- microsomal CLint [3]: < 7.2 µL/min/mg
Compound: CC(C)n1cc(Cn2nnc3c(N)nc(C4CC4)nc32)cn1

- Vd [7]: 1.4 L/kg
- Vd [8]: 1.7 L/kg
- clearance [1]: 61 mL/min/kg
- bioavailability [4]: 17%
- clearance [5]: 22 mL/min/kg
- bioavailability [9]: 13%
Compound: Nc1nc(C(F)(F)F)nc2c1nnn2C[C@H]1CCCO1

- microsomal CLint [3]: < 7.2 µL/min/mg
Compound: COCc1nc(N)c2nnn(CC3CCCCO3)c2n1 (centres undefined)

- microsomal CLint [2]: 625 µL/min/mg
- microsomal CLint [3]: 303 µL/min/mg
Compound: Cc1ccnc(N2CCCC(Cn3nnc4c(N)nc(C5CC5)nc43)C2)n1 (centres undefined)

- microsomal CLint [2]: 35 µL/min/mg
- microsomal CLint [3]: < 7.2 µL/min/mg
Compound: Nc1nc(C2CC2)nc2c1nnn2CC1CCCOC1 (centres undefined)

- inhibition [11]: 52%
- microsomal CLint [2]: 230 µL/min/mg
- inhibition [12]: 62%
- IC50 [10]: 206 nM
- microsomal CLint [3]: 30 µL/min/mg
Compound: Nc1nc(C2CC2)nc2c1nnn2C[C@@H]1CCN(Cc2nccs2)C1

Reference: ChEMBL document CHEMBL2069214, “Discovery of triazolopyrimidine-based PDE8B inhibitors: exceptionally ligand-efficient and lipophilic ligand-efficient compounds for the treatment of diabetes” (Bioorg Med Chem Lett, 2012)
